Reference: ChEMBL document CHEMBL5625206, “Design, synthesis, and evaluation of novel pleuromutilin aryl acrylate derivatives as promising broad-spectrum antibiotics especially for combatting multi-drug resistant gram-negative bacteria” (Eur J Med Chem, 2023)
Activity calls are given as the source filed them. No cut-off for these calls is given here.

Tests used:
Staphylococcus aureus [1] = test: Induction of cell damage in methicillin-resistant Staphylococcus aureus ATCC 33591 assessed as fold increase in extracellular ATP concentration at 2 times MIC incubated for 30 mins by fluorescence based analysis relative to control; assay type: functional; details: 0.5 h
Staphylococcus aureus [2] = test: Induction of cell damage in methicillin-resistant Staphylococcus aureus ATCC 33591 assessed as intracellular pH at 2 times MIC incubated for 30 mins by fluorescence based analysis (reference value: 6.34 +/- 0.10); assay type: functional; details: 0.5 h
[3] = Toxicity in neutropenic Kunming mouse model infected with methicillin-resistant Staphylococcus aureus ATCC 33591 assessed as survival rate at 5 mg/kg, ip measured after 7 days relative to control; assay type: organism-based; details: in vivo, 168 h, time 7 day
Staphylococcus aureus [4] = test: Antibacterial activity against methicillin-resistant Staphylococcus aureus ATCC 33591 infected in neutropenic Kunming mouse model assessed as reduction in infection-induced inflammatory cell infiltration in lung at 20 mg/kg, ip measured after 7 days; assay type: functional, organism-based; details: time 7.0 day
[5] = Volume of distribution at steady state in fasted Sprague-Dawley rat at 1 mg/kg, iv by LC-MS/MS analysis; assay type: ADME, organism-based; details: in vivo, read-out: Vdss
[6] = Toxicity in fasted male Sprague-Dawley rat assessed as body weight at 500 mg/kg, IG measured after 7 days (reference value: 260.5 +/- 12.7 g); assay type: organism-based; details: in vivo, po, 168 h, time 7 day
[7] = Toxicity in fasted female Sprague-Dawley rat assessed as body weight at 224 mg/kg, IG measured after 14 days (reference value: 214.3 +/- 9.8 g); assay type: organism-based; details: in vivo, po, 336 h, time 14 day
[8] = Toxicity in fasted male Sprague-Dawley rat assessed as relative liver weight ratio at 331 mg/kg, IG measured for 14 days (reference value: 3.616 +/- 0.286); assay type: organism-based; details: in vivo, po, 336 h, time 14 day
[9] = Toxicity in fasted female Sprague-Dawley rat assessed as relative kidney weight ratio at 100 mg/kg, IG measured for 14 days (reference value: 0.802 +/- 0.031); assay type: organism-based; details: in vivo, po, 336 h, time 14 day
[10] = Toxicity in fasted female Sprague-Dawley rat assessed as relative kidney weight ratio at 224 mg/kg, IG measured for 14 days (reference value: 0.802 +/- 0.031); assay type: organism-based; details: in vivo, po, 336 h, time 14 day
[11] = Toxicity in fasted male Sprague-Dawley rat assessed as relative kidney weight ratio at 500 mg/kg, IG measured for 14 days (reference value: 0.820 +/- 0.072); assay type: organism-based; details: in vivo, po, 336 h, time 14 day
[12] = Toxicity in fasted female Sprague-Dawley rat assessed as relative heart weight ratio at 100 mg/kg, IG measured for 14 days (reference value: 0.429 +/- 0.016); assay type: organism-based; details: in vivo, po, 336 h, time 14 day

C=C[C@]1(C)C[C@@H](OC(=O)COC(=O)/C=C/c2ccc(N(C)C)cc2)[C@]2(C)[C@H](C)CC[C@]3(CCC(=O)[C@H]32)[C@@H](C)[C@@H]1O
fold change (FC) (Staphylococcus aureus [1]): 3.21 | pH (Staphylococcus aureus [2]): 2.75 | Survival [3]: 30% | Activity (Staphylococcus aureus [4]): Active | Vd [5]: 2 L/kg | Activity [6]: 251.3 g | Activity [7]: 217.4 g | Ratio [8]: 3.528 | Ratio [9]: 0.81 | Ratio [10]: 0.839 | Ratio [11]: 0.759 | Ratio [12]: 0.438
